In brackets after ≈: the same amount, converted by molar mass. Read-outs that look alike come from different tables or passages of the source.
Experiments:
vertebral blood flow = experiment: Effect of vertebral blood flow (anesthetized dogs); assay type: in vivo, mongrel dogs; conditions: Canis lupus familiaris; dose required to obtain 100% of the flow increase by intraartery 3 μg/kg nifedipine
Method: Adult mongrel dogs were anesthetized with sodium pentobarbital (30 mg/kg. i.v.) and the blood flow of the left vertebral artery was measured.

[1] = molecular target: calcium/calmodulin dependent phosphodiesterase; experiment: Effect on calcium/calmodulin dependent phosphodiesterase; assay type: biochemical; conditions: [3H]-cAMP, pH 8.0, 37° C., 20 minutes; read-out: Inhibitory action on calcium/calmodulin dependent phosphodiesterase IC50
Method: The experiment was carried out according to the method of Thompson et al. described in Advances in Cyclic Nucleotide Research, Vol. 10, p. 69 (1979). Briefly, the solution of which final volume was 200μl was prepared by mixing 40 μl of 200 mM Tris-HCl buffer solution (pH 8.0), containing 25 mM magnesium chloride and 0.5 mM ethyleneglycol-bis(β-aminoethylether)-N,N '-tetra acetic acid (EGTA), 20 μof 10μM [^3 H]-cAMP (250 nCi), test compound and a solution of calcium/calmodulin dependent phosphodiesterase (PDE) enzyme. The test compound was dissolved in dimethyl sulfoxide to give 1% of final concentration. The incubation was performed at 37° C. for 20 minutes and then stopped by heating for 1 minutes in a boiling water bath. The resulting 5'-AMP was converted into adenosine by adding 50 μl of snake venom (1 mg/ml) and incubating at 30° C. for 10 minutes. Then, to the solution was added 500 μl of AGI-X8 (methanol:resin=3:2) and the mixture was allowed to stand under ice-cooling for 15 minutes with occasional shaking to adsorb the unreacted cAMP. After centrifuging, the radioactivity of the supernatant was measured by a liquid scintillation counter.
The action of the test compound on PDE activity was studied by calculating the inhibition percentage in the absence of calcium/calmodulin from the following formula, and represented as IC50 value. [formula] a: PDE activity in the presence of test compound and in the absence of calmodulin
b: PDE activity in the absence of test compound and calmoduline

[2] = test system: PAF-induced platelet aggregation; experiment: Inhibitory effect on platelet aggregation in rabbits (in vitro test); assay type: cell-based; conditions: Oryctolagus cuniculus, rabbit PRP, PAF 1.8×10^-7 M, 37° C., read-out: Inhibition of PAF-induced platelet aggregation, IC50
Method: (§1) Blood samples to which was added 0.1 volume of 3.8% sodium citrate were collected from rabbits. Platelet rich plasma (PRP) was prepared by centrifuging the blood sample at 200 x g for 10 minutes, and platelet poor plasma (PPP) was prepared by centrifuging the remaining blood sample at 1000 x g for 10 minutes.
(§2) Aggregation ability was measured with a turbidimetric device (6-channel NKK Hematracer 1, model PAT-6A) according to the method of G.V.R. Born described in J. Physiology, vol. 168, p. 178 (1963). The aggregometer was adjusted in sensitivity to give light transmission values of 0 and 100% for PRP and PPP, respectively. With stirring at 1000 rpm, 0.3 μl of test compound solution or vehicle was added to 0.3 ml of PRP. After the mixture was kept at 37° C. for 2 minutes, to the mixture was added 3 μl of synthesized platelet activating factor at the final concentration of 1.8×10^-7 M and the light transmission was recorded for 5 minutes.
(§3) The inhibition percentage of test compounds on platelet aggregation were calculated from the following formula by measuring the maximal light transmission in the presence and absence of the test compounds. [formula]

[3] = test system: coronary artery blood flow; experiment: Effect on coronary flow (coronary artery blood flow in anesthetized dogs); assay type: in vivo, mongrel dogs; conditions: relative to flow increase at 3 μg nifedipine
Method: Adult mongrel dogs were anesthetized with sodium pentobarbital (30 mg/kg, i.v.). According to the method of Yago et al described in Folia Pharmacologica Japonica, vol. 57, p. 380 (1961), the left coronary artery was perfused and its blood flow was measured. Test compound was injected into the coronary artery at a volume of 10-30 μl. To determine the effect of the test compound on coronary artery blood flow, an increase percentage of blood flow at each dosage was calculated based on the increase of the blood flow at a dosage of 3 μg of nifedipine.

PAF-induced lethal shock = experiment: Effect of PAF-induced lethal shock in mice; assay type: in vivo, male ICR mice; conditions: 1 hour before PAF 80 μg/kg i.v., 24 hours
Method: The experiment was carried out according to the method of Young et al. described in Prostaglandins, vol. 30, p. […] Groups of 9 to 15 male ICR mice (Charles River) weighing 25-30 g were used. 80 μg/kg of PAF (Serdary Research Labo.) solution was intravenously administered in a lateral tail vein 1 hour after the oral administration of test compound (0.1 ml/10 g). […] Results were given as number of survivors/number of employed animals and survival rates (%) in Table 4.

[4] = test system: PAF-induced platelet aggregation; experiment: Inhibitory effect on platelet aggregation in rabbits (ex vivo test); conditions: 10 mg/kg p.o.; for inhibition at 10 mg/kg: Oryctolagus cuniculus, Platelet, po, read-out: % of inhibition after administration
Method: as §1, §2, §3
Test compound was orally administered to a group of three rabbits instead of adding it to PRP as in vitro test of Experiment 2, and then the citrated blood samples (1 volume of 3.8% sodium citrate +9 volumes of blood) were collected with the passage of time. Then, the blood samples were employed to determine the inhibitory effect according to Experiment 2.

[5] = molecular target: T1, calmodulin (bovine encephalon) (Bos taurus, UniProt P62157); experiment: Calmodulin inhibitory action (NPN fluorescence probe method); assay type: biochemical
T1 construct: calmodulin (bovine encephalon); from tissue; host or cells: bovine encephalon (brain)
Method: Calmodulin inhibitory action was measured according to the modified method of Epstein et al. described in Biochemical and Biophysical Research Communications, Vol. 105, p. 1142 (1982). Briefly, to 25 mM Tris-HCl buffer solution (pH 7.0) were added as a final concentration 1 mM calcium chloride, 5 μM N-phenyl-1-naphthylamine (NPN), 1000 units of calmodulin (bovine encephalon) and each of test compound to give 3 ml of final solution volume. The solution was allowed to stand at room temperature for 1 hour and the fluorescence intensity was measured by a fluorescene photometer (ex. 350 nm, em. 440 nm). A blank was prepared by adding water instead of calmodulin. Each of test compound was dissolved in dimethyl sulfoxide or 2.5% dimethyl sulfoxide solution and the final concentration of dimethyl sulfoxide was adjusted to 0.25%.

[6] = dosage 30 μg into coronary artery
[7] = dosage 100 μg into coronary artery
[8] = dosage 300 μg into coronary artery

CCCCCCc1cc2c(s1)-n1c(C)nnc1CN=C2c1cc(C)ccc1C [Example 65, 2-hexyl-4-(2,5-dimethylphenyl)-9-methyl-6H-thieno[3,2-f][1,2,4]triazolo[4,3-a][1,4]diazepine]
ED100 (vertebral blood flow): 0.099 mg/kg | IC50 [1]: 20 µM

CCCCCCCCCCc1cc2c(s1)-n1c(C)nnc1CN=C2c1ccccc1Cl [Example 72, 4-(2-chlorophenyl)-2-decyl-9-methyl 6H-thieno[3,2-f][1,2,4]triazolo[4,3-a][1,4]-diazepine]
IC50 [2]: 0.03 to 0.1 µg/mL (≈ 0.0659 to 0.22 µM)

CCCCCCc1cc2c(s1)-n1c(C)nnc1CN=C2c1ccccc1OC [Example 55, 2-hexyl-4-(2-methoxyphenyl)-9-methyl-6H-thieno[3,2-f][1,2,4]triazolo[4,3-a][1,4]diazepine]
IC50 [2]: 0.03 to 0.1 µg/mL (≈ 0.076 to 0.253 µM)

CCCCCCc1cc2c(s1)-n1c(C)nnc1CN=C2c1ccccc1C [Example 58, 2-hexyl-4-(2-methylphenyl)-9-methyl-6H-thieno[3,2-f][1,2,4]triazolo[4,3-a][1,4]diazepine]
Effect on coronary blood flow [3, 6]: 63% | Effect on coronary blood flow [3, 7]: 107% | Effect on coronary blood flow [3, 8]: 136%

CCCCCCc1cc2c(s1)-n1c(C)nnc1CN=C2c1ccc(C)cc1 [Example 61, 2-hexyl-4-(4-methylphenyl)-9-methyl-6H-thieno[3,2-f][1,2,4]triazolo[4,3-a][1,4]diazepine]
Effect on coronary blood flow [3, 6]: 55% | Effect on coronary blood flow [3, 7]: 69% | Effect on coronary blood flow [3, 8]: 103% | Number of Survivors/Number of Animals (PAF-induced lethal shock; 1 mg/kg p.o.): 6/8 | Survival rate (PAF-induced lethal shock; 1 mg/kg p.o.): 75% | Number of Survivors/Number of Animals (PAF-induced lethal shock; 3 mg/kg p.o.): 8/8 | Survival rate (PAF-induced lethal shock; 3 mg/kg p.o.): 100%

CCCCCCCCc1cc2c(s1)-n1c(C)nnc1CN=C2c1ccccc1Cl [Example 57, 4-(2-chlorophenyl)-2-octyl-9-methyl-6H-thieno[3,2-f][1,2,4]triazolo[4,3-a][1,4]diazepine]
IC50 [2]: 0.01 to 0.1 µg/mL (≈ 0.0234 to 0.234 µM) | IC50 [1]: 11 µM

CCc1cc2c(s1)-n1c(C)nnc1CN=C2c1ccccc1Cl [Etizolam, 6-(o-chlorophenyl)-8-ethyl-1-methyl-4H-s-triazolo[3,4-c]thieno[2,3-e][1,4]diazepine, reference compound]
IC50 [2]: 1.3 µg/mL (≈ 3.79 µM) | % of inhibition at each time after administration (in words) ([4]; one entry for 1, 3 and 6 hours): no effect

CCCCCCCCCCCCc1cc2c(s1)-n1c(C)nnc1CN=C2c1ccccc1Cl [Example 73, 4-(2-chlorophenyl)-2-dodecyl-9-methyl-6H-thieno[3,2-f][1,2,4]triazolo[4,3-a][1,4]-diazepine]
IC50 [2]: 0.3 to 1 µg/mL (≈ 0.621 to 2.07 µM)

CCCCCCc1cc2c(s1)-n1c(C)nnc1C(C)N=C2c1ccccc1Cl (stereo not shown) [Example 74, 4-(2-chlorophenyl)-2-hexyl-6,9-dimethyl-6H-thieno[3,2-f][1,2,4]triazolo[4,3-a][1,4]diazepine]
Effect on coronary blood flow [3, 6]: 16% | Effect on coronary blood flow [3, 7]: 57% | Effect on coronary blood flow [3, 8]: 86% | IC50 [5]: 1.2 µM | Number of Survivors/Number of Animals (PAF-induced lethal shock; 0.1 mg/kg p.o.): 5/6 | Survival rate (PAF-induced lethal shock; 0.1 mg/kg p.o.): 83.3% | Number of Survivors/Number of Animals (PAF-induced lethal shock; 1 mg/kg p.o.): 7/7 | Survival rate (PAF-induced lethal shock; 1 mg/kg p.o.): 100%

CCOC(=O)C1=C[C@]2(CC)CCCN3CCc4c(n1c1ccccc41)[C@@H]32 [vinpocetine, reference compound]
IC50 [1]: 88 µM

CCCCCCc1cc2c(s1)-n1c(C)nnc1CN=C2c1ccccc1Cl [Example 54, 4-(2-chlorophenyl)-2-hexyl-9-methyl-6H-thieno[3,2-f][1,2,4]triazolo[4,3-a][1,4]diazepine]
IC50 [2]: 0.03 to 0.1 µg/mL (≈ 0.0752 to 0.251 µM) | inhibition at 10 mg/kg ([4]; 1 hour): 100% | inhibition at 10 mg/kg ([4]; 3 hours): 100% | inhibition at 10 mg/kg ([4]; 6 hours): 85% | Number of Survivors/Number of Animals (PAF-induced lethal shock; 0.3 mg/kg p.o.): 3/10 | Survival rate (PAF-induced lethal shock; 0.3 mg/kg p.o.): 30% | Number of Survivors/Number of Animals (PAF-induced lethal shock; 3 mg/kg p.o.): 10/10 | Survival rate (PAF-induced lethal shock; 3 mg/kg p.o.): 100%

CCCCCCc1cc2c(s1)-n1c(C)nnc1CN=C2c1cccc(C)c1 [Example 62, 2-hexyl-4-(3-methylphenyl)-9-methyl-6H-thieno[3,2-f][1,2,4]triazolo[4,3-a][1,4]diazepine]
Number of Survivors/Number of Animals (PAF-induced lethal shock; 3 mg/kg p.o.): 6/8 | Survival rate (PAF-induced lethal shock; 3 mg/kg p.o.): 75% | IC50 [1]: 11 µM

CCCCCCCCCCc1cc2c(s1)-n1c(C)nnc1CN=C2c1ccccc1OC [Example 69, 2-decyl-4-(2-methoxyphenyl)-9-methyl-6H-thieno[3,2-f][1,2,4]triazolo[4,3-a][1,4]diazepine]
IC50 [2]: 0.3 to 1 µg/mL (≈ 0.666 to 2.22 µM)

CCCCCCc1cc2c(s1)-n1c(C)nnc1CN=C2c1cc(OC)c(OC)c(OC)c1 [Example 67, 2-hexyl-4-(3,4,5-trimethoxyphenyl)-9-methyl-6H-thieno[3,2-f][1,2,4]triazolo[4,3-a][1,4]diazepine]
Effect on coronary blood flow [3, 6]: 43% | Effect on coronary blood flow [3, 7]: 86% | Effect on coronary blood flow [3, 8]: 114% | ED100 (vertebral blood flow): 0.078 mg/kg | IC50 [1]: 7 µM

CCCCCCc1cc2c(s1)-n1c(C)nnc1C(C)N=C2c1ccccc1C (stereo not shown) [Example 68, 2-hexyl-4-(2-methylphenyl)-6,9-dimethyl 6H-thieno[3,2-f][1,2,4]triazolo[4,3-a][1,4]diazepine]
Effect on coronary blood flow [3, 6]: 33% | Effect on coronary blood flow [3, 7]: 63% | Effect on coronary blood flow [3, 8]: 100% | IC50 [5]: 1.1 µM | Number of Survivors/Number of Animals (PAF-induced lethal shock; 0.1 mg/kg p.o.): 5/6 | Survival rate (PAF-induced lethal shock; 0.1 mg/kg p.o.): 83.3% | Number of Survivors/Number of Animals (PAF-induced lethal shock; 0.3 mg/kg p.o.): 6/7 | Survival rate (PAF-induced lethal shock; 0.3 mg/kg p.o.): 85.7% | Number of Survivors/Number of Animals (PAF-induced lethal shock; 1 mg/kg p.o.): 6/7 | Survival rate (PAF-induced lethal shock; 1 mg/kg p.o.): 85.7%

Reference: patent US4960770A, “2-alkyl thieno(triazolo)diazepine compounds and pharmaceutical uses thereof” (Yoshitomi Pharmaceutical Industries, Ltd., priority 1987, dated 1990)
